According to patent US12077503B2, “Substituted cyclic amides and their use as herbicides” (FMC CORPORATION, priority 2015, dated 2024):

Assays:
Assay type in all cases: in vivo
corn (Zea mays) [1] = assay: Test G Post-Emergence Protocol; conditions: Zea mays, post-emergence, 312 h; for plant injury at 15.625 g/ha: 15.625 g ai/ha, evaluated after 13 days (100=total damage to plant; 0=no damage to plant), read-out: Corn damage rating; for plant injury at 62.5 g/ha: 62.5 g ai/ha, read-out: Corn damage rating (100=total damage to plant; 0=no damage to plant); for plant injury at 62.5 g/ha / plant injury at 250 g/ha: evaluated after 13 days; for plant injury at 250 g/ha: 250 g ai/ha, read-out: damage to plant, Corn (100=total damage to plant; 0=no damage to plant)
How it was run: (§1)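 Eight days post-sowing, plants received a spray of test compound (acetone/water 50:50, 0.5% Tween 20) at 15.625, 62.5 or 250 g/ha. Glasshouse regime thereafter: 24/16 °C, 14 h light, 65% humidity. Assessment after 13 days on a 0–100 damage scale.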

[2] = tested on: redroot pigweed (Amaranthus retroflexus); assay: Test G Post-Emergence Protocol; conditions: Amaranthus retroflexus, post-emergence, 312 h; for pest or weed control at 15.625 g/ha: 15.625 g ai/ha, evaluated after 13 days (100=total damage to plant; 0=no damage to plant), read-out: Pigweed, Redroot damage rating; for pest or weed control at 62.5 g/ha: 62.5 g ai/ha, read-out: Pigweed, Redroot damage rating (100=total damage to plant; 0=no damage to plant); for pest or weed control at 62.5 g/ha / pest or weed control at 250 g/ha: evaluated after 13 days; for pest or weed control at 250 g/ha: 250 g ai/ha, read-out: damage to plant, Pigweed, Redroot (100=total damage to plant; 0=no damage to plant)
How it was run: as §1

[3] = tested on: barnyardgrass (Echinochloa crus-galli); assay: Test G Post-Emergence Protocol; conditions: Echinochloa crus-galli, post-emergence, 312 h; for pest or weed control at 15.625 g/ha: 15.625 g ai/ha, evaluated after 13 days (100=total damage to plant; 0=no damage to plant), read-out: Barnyardgrass damage rating; for pest or weed control at 62.5 g/ha: 62.5 g ai/ha, read-out: Barnyardgrass damage rating (100=total damage to plant; 0=no damage to plant); for pest or weed control at 62.5 g/ha / pest or weed control at 250 g/ha: evaluated after 13 days; for pest or weed control at 250 g/ha: 250 g ai/ha, read-out: damage to plant, Barnyardgrass (100=total damage to plant; 0=no damage to plant)
How it was run: as §1

[4] = tested on: velvetleaf (Abutilon theophrasti); assay: Test G Post-Emergence Protocol; conditions: Abutilon theophrasti, post-emergence, 312 h; for pest or weed control at 15.625 g/ha: 15.625 g ai/ha, evaluated after 13 days (100=total damage to plant; 0=no damage to plant), read-out: Velvetleaf damage rating; for pest or weed control at 62.5 g/ha: 62.5 g ai/ha, read-out: Velvetleaf damage rating (100=total damage to plant; 0=no damage to plant); for pest or weed control at 62.5 g/ha / pest or weed control at 250 g/ha: evaluated after 13 days; for pest or weed control at 250 g/ha: 250 g ai/ha, read-out: damage to plant, Velvetleaf (100=total damage to plant; 0=no damage to plant)
How it was run: as §1

[5] = tested on: giant foxtail (Setaria faberi); assay: Test G Post-Emergence Protocol; conditions: Setaria faberi, post-emergence, 312 h; for pest or weed control at 15.625 g/ha: 15.625 g ai/ha, evaluated after 13 days (100=total damage to plant; 0=no damage to plant), read-out: Foxtail, Giant damage rating; for pest or weed control at 62.5 g/ha: 62.5 g ai/ha, read-out: Foxtail, Giant damage rating (100=total damage to plant; 0=no damage to plant); for pest or weed control at 62.5 g/ha / pest or weed control at 250 g/ha: evaluated after 13 days; for pest or weed control at 250 g/ha: 250 g ai/ha, read-out: damage to plant, Foxtail, Giant (100=total damage to plant; 0=no damage to plant)
How it was run: as §1

[6] = tested on: ivy-leaved morning glory (Ipomoea hederacea); assay: Test G Post-Emergence Protocol; conditions: Ipomoea, post-emergence, 312 h; for pest or weed control at 15.625 g/ha: 15.625 g ai/ha, evaluated after 13 days (100=total damage to plant; 0=no damage to plant), read-out: Morningglory, Ivy-leaved damage rating; for pest or weed control at 62.5 g/ha: 62.5 g ai/ha, read-out: Morningglory, Ivy-leaved damage rating (100=total damage to plant; 0=no damage to plant); for pest or weed control at 62.5 g/ha / pest or weed control at 250 g/ha: evaluated after 13 days; for pest or weed control at 250 g/ha: 250 g ai/ha, read-out: damage to plant, Morningglory, Ivy-leaved (100=total damage to plant; 0=no damage to plant)
How it was run: as §1

corn (Zea mays) [7] = assay: Test G Pre-Emergence Protocol; conditions: Zea mays, pre-emergence, 312 h, evaluated after 13 days; for plant injury at 15.625 g/ha: 15.625 g ai/ha; for plant injury at 15.625 g/ha / plant injury at 250 g/ha: read-out: Corn damage rating (100=total damage to plant; 0=no damage to plant); for plant injury at 62.5 g/ha: 62.5 g ai/ha, 100=total damage to plant, 0=no damage to plant, read-out: plant damage rating, Corn; for plant injury at 250 g/ha: 250 g ai/ha
How it was run: (§2)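 Glasshouse pre-emergence test: soil-sown seeds, sprayed after 1 d at 15.625, 62.5 or 250 g/ha. Conditions 24/16° C day/night, 14 h light, 65% humidity, watering twice daily. Rating 13 d post-spray (100 = total damage).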

[8] = tested on: redroot pigweed (Amaranthus retroflexus); assay: Test G Pre-Emergence Protocol; conditions: Amaranthus retroflexus, pre-emergence, 312 h, evaluated after 13 days; for pest or weed control at 15.625 g/ha: 15.625 g ai/ha; for pest or weed control at 15.625 g/ha / pest or weed control at 250 g/ha: read-out: Pigweed, Redroot damage rating (100=total damage to plant; 0=no damage to plant); for pest or weed control at 62.5 g/ha: 62.5 g ai/ha, 100=total damage to plant, 0=no damage to plant, read-out: plant damage rating, Pigweed, Redroot; for pest or weed control at 250 g/ha: 250 g ai/ha
How it was run: as §2

[9] = tested on: barnyardgrass (Echinochloa crus-galli); assay: Test G Pre-Emergence Protocol; conditions: Echinochloa crus-galli, pre-emergence, 312 h, evaluated after 13 days; for pest or weed control at 15.625 g/ha: 15.625 g ai/ha, read-out: Barnyard grass damage rating (100=total damage to plant; 0=no damage to plant); for pest or weed control at 62.5 g/ha: 62.5 g ai/ha, 100=total damage to plant, 0=no damage to plant, read-out: plant damage rating, Barnyardgrass; for pest or weed control at 250 g/ha: 250 g ai/ha, read-out: Barnyardgrass damage rating (100=total damage to plant; 0=no damage to plant)
How it was run: as §2

[10] = tested on: velvetleaf (Abutilon theophrasti); assay: Test G Pre-Emergence Protocol; conditions: Abutilon theophrasti, pre-emergence, 312 h, evaluated after 13 days; for pest or weed control at 15.625 g/ha: 15.625 g ai/ha; for pest or weed control at 15.625 g/ha / pest or weed control at 250 g/ha: read-out: Velvetleaf damage rating (100=total damage to plant; 0=no damage to plant); for pest or weed control at 62.5 g/ha: 62.5 g ai/ha, 100=total damage to plant, 0=no damage to plant, read-out: plant damage rating, Velvetleaf; for pest or weed control at 250 g/ha: 250 g ai/ha
How it was run: as §2

[11] = tested on: giant foxtail (Setaria faberi); assay: Test G Pre-Emergence Protocol; conditions: Setaria faberi, pre-emergence, 312 h, evaluated after 13 days; for pest or weed control at 15.625 g/ha: 15.625 g ai/ha; for pest or weed control at 15.625 g/ha / pest or weed control at 250 g/ha: read-out: Foxtail, Giant damage rating (100=total damage to plant; 0=no damage to plant); for pest or weed control at 62.5 g/ha: 62.5 g ai/ha, 100=total damage to plant, 0=no damage to plant, read-out: plant damage rating, Foxtail, Giant; for pest or weed control at 250 g/ha: 250 g ai/ha
How it was run: as §2

[12] = tested on: ivy-leaved morning glory (Ipomoea hederacea); assay: Test G Pre-Emergence Protocol; conditions: Ipomoea, pre-emergence, 312 h, evaluated after 13 days; for pest or weed control at 15.625 g/ha: 15.625 g ai/ha, read-out: Morning-glory, Ivy-leaved damage rating (100=total damage to plant; 0=no damage to plant); for pest or weed control at 62.5 g/ha: 62.5 g ai/ha, 100=total damage to plant, 0=no damage to plant, read-out: plant damage rating, Morningglory, Ivy-leaved; for pest or weed control at 250 g/ha: 250 g ai/ha, read-out: Morningglory, Ivy-leaved damage rating (100=total damage to plant; 0=no damage to plant)
How it was run: as §2

Compound | plant injury at 15.625 g/ha (corn (Zea mays) [1]) [%] | plant injury at 62.5 g/ha (corn (Zea mays) [1]) [%] | plant injury at 250 g/ha (corn (Zea mays) [1]) [%] | pest or weed control at 15.625 g/ha [2] [%] | pest or weed control at 62.5 g/ha [2] [%] | pest or weed control at 250 g/ha [2] [%] | pest or weed control at 15.625 g/ha [3] [%] | pest or weed control at 62.5 g/ha [3] [%] | pest or weed control at 250 g/ha [3] [%] | pest or weed control at 15.625 g/ha [4] [%] | pest or weed control at 62.5 g/ha [4] [%] | pest or weed control at 250 g/ha [4] [%] | pest or weed control at 15.625 g/ha [5] [%] | pest or weed control at 62.5 g/ha [5] [%] | pest or weed control at 250 g/ha [5] [%] | pest or weed control at 15.625 g/ha [6] [%] | pest or weed control at 62.5 g/ha [6] [%] | pest or weed control at 250 g/ha [6] [%] | plant injury at 15.625 g/ha (corn (Zea mays) [7]) [%] | plant injury at 62.5 g/ha (corn (Zea mays) [7]) [%] | further results
Cc1ccc(NC(=O)[C@H]2C(=O)N(C)C[C@@H]2c2ccc(C(F)(F)F)cc2)nc1 (racemic) [Compound 1484] | 20 | 0 | 30 | 10 | 0 | 20 | 20 | 20 | 40 | 0 | 0 | 10 | 10 | 10 | 30 | 0 | 0 | 0 | 20 | 10 | plant injury at 250 g/ha (corn (Zea mays) [7]): 30%; pest or weed control at 15.625 g/ha [8]: 0%; pest or weed control at 62.5 g/ha [8]: 0%; pest or weed control at 250 g/ha [8]: 20%; pest or weed control at 15.625 g/ha [9]: 0%; pest or weed control at 62.5 g/ha [9]: 10%; pest or weed control at 250 g/ha [9]: 30%; pest or weed control at 15.625 g/ha [10]: 0%; pest or weed control at 62.5 g/ha [10]: 0%; pest or weed control at 250 g/ha [10]: 0%; pest or weed control at 15.625 g/ha [11]: 10%; pest or weed control at 62.5 g/ha [11]: 10%; pest or weed control at 250 g/ha [11]: 30%; pest or weed control at 15.625 g/ha [12]: 0%; pest or weed control at 62.5 g/ha [12]: 0%; pest or weed control at 250 g/ha [12]: 0%
CN1C[C@@H](c2cc(Cl)nc(C(F)(F)F)c2)[C@H](C(=O)Nc2cccc(F)c2F)C1=O (racemic) [Compound 1485] | 40 | 70 | 80 | 0 | 20 | 40 | 50 | 70 | 70 | 0 | 10 | 20 | 60 | 70 | 70 | 0 | 0 | 20 | 40 | 70 | plant injury at 250 g/ha (corn (Zea mays) [7]): 80%; pest or weed control at 15.625 g/ha [8]: 0%; pest or weed control at 62.5 g/ha [8]: 30%; pest or weed control at 250 g/ha [8]: 60%; pest or weed control at 15.625 g/ha [9]: 60%; pest or weed control at 62.5 g/ha [9]: 90%; pest or weed control at 250 g/ha [9]: 90%; pest or weed control at 15.625 g/ha [10]: 0%; pest or weed control at 62.5 g/ha [10]: 0%; pest or weed control at 250 g/ha [10]: 30%; pest or weed control at 15.625 g/ha [11]: 60%; pest or weed control at 62.5 g/ha [11]: 90%; pest or weed control at 250 g/ha [11]: 90%; pest or weed control at 15.625 g/ha [12]: 0%; pest or weed control at 62.5 g/ha [12]: 0%; pest or weed control at 250 g/ha [12]: 0%
